# Experimental data published in US20130267558A1, “PHARMACEUTICAL COMPOSITION FOR TREATING OR PREVENTING ALCOHOLIC LIVER DISEASES, CONTAINING CILOSTAZOL AS ACTIVE INGREDIENT” (INDUSTRY-ACADEMIC COOPERATION FOUNDATION YEUNGNAM UNIVERSITY, priority 2010, published 2013).
# Tests used:
# [1] = system: caspase-3; assay: Liver caspase-3 activity in alcohol-induced acute liver injury animal model; type: in vivo; settings: mice; oral 100 mg/kg for 4 days before ethanol 6 g/kg oral; FIG. 9
# Description: Also, the caspase-3 activity was measured by using an activity assay kit (R&D kit). That is, caspase-3 activity was measured by using a caspase-3 colorimetric assay kit (R&D system, Minneapolis, Minn.). Liver cells were lysed by using lysis buffer, and then the protein (150 μg) was incubated with DEVD-pNA, a caspase-3 substrate at 37° C. for 2 hours, and then absorption of the product was measured at a wavelength of 405 nm.
# [2] = system: primary cultured liver cells; assay: MTS assay, viability of primary cultured liver cells treated with ethanol; type: cell-based, Sprague-Dawley rats or C57BL/6 mouse; settings: pretreatment 100 μM; ethanol 100, 200 mM for 24 hour; vs DMSO group; FIG. 1
# Description: Liver cells were separated from Sprague-Dawley rats (8 to 10 weeks) or C57BL/6 (8 to 10 weeks) mouse via in situ collagenase perfusion, and then cultured in DMEM containing 10% FBS, 100 U/ml penicillin, 100 μg/ml streptomycin, 4 mM L-glutamine, and 100 nM dexamethasone. After 3 hours, the culture solution was replaced with DMEM including 0.1% FBS and 10 nM dexamethasone, and then, cultured for 16 hours (overnight). For the treatment, the cells were treated with various concentrations of ethanol (0, 100, 200 mM) alone or together with cilostazol (Otsuka) or pentoxifylline which is used as a therapeutic agent for alcoholic hepatitis, and the resultant cell reactions were compared with each other. After the treatment with ethanol, a culture dish was sealed with a parafilm to prevent evaporation of ethanol. MTS assay was performed in the following manner to identify effects of cilostazol on decreased liver cell viability caused by ethanol. That is, the viability of liver cells was measured by using a MTS assay kit (Promega, Madison, Wis., USA). […] An MTS solution were added to the respective wells and then, the cells were incubated at 37° C. for 4 hours, and absorption of the result was measured at a wavelength of 490 nm.
# [3] = system: TNF-α; assay: LPS-stimulated TNF-α production in RAW264.7 macrophage (ELISA); type: cell-based; settings: pretreatment, LPS 50 ng/ml, 4 hours, FIG. 5
# Description: RAW264.7 cells were obtained from Korean Cell Line Bank and cultured in a DMEM solution containing 10% FBS, 100 U/ml penicillin, and 100 μg/ml streptomycin for use in experiments. To compare direct effects of ethanol with indirect effects caused by endotoxin, effects of LPS were identified. RAW264.7 macrophage prepared as described above was treated with LPS (50 ng/ml) for 4 hours, and then, TNF-α level in the cell culture was measured by using ELISA kit (R&D).
# [4] = system: FAS (fatty acid synthase) gene; assay: Liver FAS gene expression (real-time PCR) in alcohol-induced acute liver injury animal model; type: in vivo; settings: mice; oral 100 mg/kg for 4 days before ethanol 6 g/kg oral; FAS mRNA normalized to β-actin; FIG. 11
# Description: Eight-week old mice were subjected to binge alcohol drinking to induce liver damage. That is, mice were administered orally 6 g/kg of ethanol once. Cilostazol was orally administered in doses of 50 mg/kg/day and 100 mg/kg/day for 4 days before ethanol administration, and ethanol was orally administered 1 h after the last cilostazol administration. Then, animals were sacrificed at different time after ethanol administration.
# Effects of cilostazol on the expression of FAS gene were identified by real-time PCR assay. That is, total RNA was extracted from liver tissues by using a trizol reagent, and then 1 μg of total RNA was reverse-transcribed into cDNA by using high-performance cDNA reverse transcription kit (Applied Biosystems, Foster City, Calif., USA). The PCR reaction was performed such that cDNA, the respective primers were reacted with power SYBR Green PCR master mix (Applied Biosystems) by using real-time PCR 7500 software system (Applied Biosystem). The PCR conditions were initial incubation at 95° C. for 10 minutes, followed by 45 cycles of 95° C. for 15 seconds, 55° C. for 20 seconds, and 72° C. for 35 seconds.
# FAS mRNA level was normalized to β-actin mRNA level, and shown in fold increase.
# [5] = system: RAW264.7 macrophage; assay: LPS-induced ROS production in RAW264.7 macrophage (H2DCFDA, FACS); type: cell-based; settings: pretreatment 100 μM for 1 hour; LPS 50 ng/ml, 4 hours; FIG. 7
# Description: RAW264.7 cells were obtained from Korean Cell Line Bank and cultured in a DMEM solution containing 10% FBS, 100 U/ml penicillin, and 100 μg/ml streptomycin for use in experiments. To compare direct effects of ethanol with indirect effects caused by endotoxin, effects of LPS were identified. RAW264.7 macrophage prepared as described above was treated with LPS (50 ng/ml) for 0 to 18 hours. Separately, RAW264.7 macrophage prepared as described above was pretreated with cilostazol (100 μM) or pentoxifylline (100 μM) for 1 hour and then, treated with LPS (50 ng/ml) for 4 hours. The RAW264.7 macrophages were treated with H2DCFDA (50 μM) for 40 minutes, and then, the production of ROS was evaluated by using FACS.
# [6] = system: caspase-3; assay: Caspase-3 colorimetric activity assay kit (DEVD-pNA) in ethanol-treated liver cells; type: cell-based, Sprague-Dawley rats or C57BL/6 mouse; settings: liver cells pretreated, FIG. 3
# Description: (§1) Liver cells were separated from Sprague-Dawley rats (8 to 10 weeks) or C57BL/6 (8 to 10 weeks) mouse via in situ collagenase perfusion, and then cultured in DMEM containing 10% FBS, 100 U/ml penicillin, 100 μg/ml streptomycin, 4 mM L-glutamine, and 100 nM dexamethasone. After 3 hours, the culture solution was replaced with DMEM including 0.1% FBS and 10 nM dexamethasone, and then, cultured for 16 hours (overnight). For the treatment, the cells were treated with various concentrations of ethanol (0, 100, 200 mM) alone or together with cilostazol (Otsuka) or pentoxifylline which is used as a therapeutic agent for alcoholic hepatitis, and the resultant cell reactions were compared with each other. After the treatment with ethanol, a culture dish was sealed with a parafilm to prevent evaporation of ethanol. Also, the caspase-3 activity was measured by using an activity assay kit (R&D kit). That is, caspase-3 activity was measured by using a caspase-3 colorimetric assay kit (R&D system, Minneapolis, Minn.). Liver cells were lysed by using lysis buffer, and then the protein (150 μg) was incubated with DEVD-pNA, a caspase-3 substrate at 37° C. for 2 hours, and then absorption of the product was measured at a wavelength of 405 nm.
# [7] = system: caspase-3; assay: Caspase-3 activity by Western blotting with cleaved caspase-3 antibody in ethanol-treated liver cells; type: cell-based, Sprague-Dawley rats or C57BL/6 mouse; settings: pretreatment 100 μM; ethanol 24 hours; FIG. 2
# Description: as §1, with “ethanol.” for “ethanol. Also, the caspase-3 activity was measured by using an activity assay kit (R&D kit). That is, caspase-3 activity was measured by using a caspase-3 colorimetric assay kit (R&D system, Minneapolis, Minn.). Liver cells were lysed by using lysis buffer, and then the protein (150 μg) was incubated with DEVD-pNA, a caspase-3 substrate at 37° C. for 2 hours, and then absorption of the product was measured at a wavelength of 405 nm.”
# [8] = system: primary cultured liver cells; assay: Hoechst staining of liver cell apoptosis caused by ethanol; type: cell-based, Sprague-Dawley rats or C57BL/6 mouse; settings: pretreatment; Hoechst 33342; FIG. 4
# Description: Liver cells were separated from Sprague-Dawley rats (8 to 10 weeks) or C57BL/6 (8 to 10 weeks) mouse via in situ collagenase perfusion, and then cultured in DMEM containing 10% FBS, 100 U/ml penicillin, 100 μg/ml streptomycin, 4 mM L-glutamine, and 100 nM dexamethasone. After 3 hours, the culture solution was replaced with DMEM including 0.1% FBS and 10 nM dexamethasone, and then, cultured for 16 hours (overnight).
# For the treatment, the cells were treated with various concentrations of ethanol (0, 100, 200 mM) alone or together with cilostazol (Otsuka) or pentoxifylline which is used as a therapeutic agent for alcoholic hepatitis, and the resultant cell reactions were compared with each other. After the treatment with ethanol, a culture dish was sealed with a parafilm to prevent evaporation of ethanol.
SMILES,liver caspase-3 activity after ethanol administration [1],"liver cell viability decreased by ethanol, effect of pretreatment [2]",decrease of LPS-increased TNF-α level in culture media ([3]; p=0.016) [%],reduction of liver FAS gene expression after ethanol administration [4],"production of ROS induced by LPS, effect of pretreatment [5]","caspase-3 activity (activity assay kit) increased by ethanol, effect of pretreatment [6]","caspase-3 activity (cleaved caspase-3, Western blot) increased by ethanol, effect of pretreatment [7]",nuclear fragmentation caused by ethanol [8],inhibitory effect on LPS-increased TNF-α level in culture media [3]
O=C1CCc2cc(OCCCCc3nnnn3C3CCCCC3)ccc2N1 [cilostazol],significantly reduced,significantly recovered,~50,about 30%,neither cilostazol nor pentoxifylline significantly inhibited,almost completely inhibited,cilostazol showed better inhibitory effects than pentoxifylline,reduced,
CC(=O)CCCCn1c(=O)c2c(ncn2C)n(C)c1=O [pentoxifylline],,did not significantly improve the cell viability,,,neither cilostazol nor pentoxifylline significantly inhibited,"reduced caspase-3 activity caused by ethanol, but the inhibitory effect of pentoxifylline was smaller than that of cilostazol",reduced,,did not show significant inhibitory effects
